In assay [1] the target is T1, human JAK1 (Homo sapiens, UniProt P23458).
T1 construct: catalytic domain, amino acids 866-1154; catalog number PV4774; purchased Invitrogen PV4774
Kind of assay: JAK1 inhibition assay (polyGT substrate / Ulight-JAK1 peptide). It counts as biochemical. Conditions: recombinant human JAK1 catalytic domain; polyGT or Ulight-JAK1 peptide assay. In a few lines:
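Signal scaled between vehicle and 10 μM staurosporine. Radiometric polyGT reactions ran 45 min at 30 °C, counted after phosphoric-acid stop. Ulight peptide reactions ran 60 min at room temperature, fluorescence read after adding Eu-PT66 detection mix with EDTA.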

Assay [2] addresses T2, human JAK2 (Homo sapiens, UniProt O60674).
T2 construct: catalytic domain (amino acids 808-1132; catalog number PV4210); GST; purchased Invitrogen PV4210
Kind of assay: JAK2 inhibition assay (polyGT substrate / Ulight-JAK1 peptide). Conditions: recombinant human JAK2 catalytic domain; polyGT or Ulight-JAK1 peptide assay. Format: biochemical. In a few lines: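 Two JAK2 formats: a ^33P-ATP polyGT assay (1 μM cold ATP, 90 min, 30° C., cpm read-out) and a Ulight-JAK1 peptide assay read by Europium-anti-phosphotyrosine fluorescence after 60 min at room temperature.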

In assay [3] the target is T3, human JAK3 (Homo sapiens, UniProt P52333).
T3 construct: catalytic domain (amino acids 781-1124; catalog number PV3855); purchased Invitrogen PV3855
Kind of assay: JAK3 inhibition assay. It counts as biochemical. The following applies: recombinant human JAK3 catalytic domain; polyGT substrate. In a few lines: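 Radiometric kinase assay: 0.5 ng JAK3 with 2.5 μg polyGT in Tris pH 7.5/MgCl2 buffer, 1 μM ATP plus 0.25 μCi 33P-γ-ATP, 1% DMSO, 45 min at 30 °C, stopped with phosphoric acid.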

In assay [4] the target is T4, human TYK2 (Homo sapiens, UniProt P29597).
T4 construct: catalytic domain (amino acids 871-1187; catalog number 08-147); purchased Carna Biosciences 08-147
T4 sequence (P29597 871-1187): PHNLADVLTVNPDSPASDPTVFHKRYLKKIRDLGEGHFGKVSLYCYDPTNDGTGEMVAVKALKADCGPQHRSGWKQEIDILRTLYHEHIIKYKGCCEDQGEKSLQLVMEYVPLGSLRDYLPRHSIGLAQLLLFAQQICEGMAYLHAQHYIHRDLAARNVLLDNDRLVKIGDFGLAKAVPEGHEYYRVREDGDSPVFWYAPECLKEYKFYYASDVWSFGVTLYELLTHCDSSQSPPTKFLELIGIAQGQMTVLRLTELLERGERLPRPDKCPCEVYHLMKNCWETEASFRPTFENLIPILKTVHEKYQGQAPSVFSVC
Kind of assay: TYK2 inhibition assay. The following applies: recombinant human TYK2 catalytic domain, polyGT substrate. It counts as biochemical. The method, boiled down:
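Radiometric kinase reaction run 90 min at 30 °C, stopped with phosphoric acid, washed and scintillation-counted.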

The test system of assay [5] is CTLL-2 cell line. Kind of assay: CTLL2 viability assay. It counts as cell-based. Conditions: Mus musculus, IL-2 dependent CTLL2 viability, 24 h, ATP-lite. From the text:
The protocol describes the methods to analyse the activity of compounds on their ability to sustain the IL2-dependent viability of CTLL2.
Final DMSO concentration was 0.1%.

The test system of assay [6] is BA/F3 cell line. Kind of assay: BA/F3 viability assay. The following applies: Mus musculus, BaF3, 48 h, read-out: BA/F3 IC50.

SMILES strings stand for the structures. Bounds are passed on as bounds.

T2 sequence (O60674 808-1132): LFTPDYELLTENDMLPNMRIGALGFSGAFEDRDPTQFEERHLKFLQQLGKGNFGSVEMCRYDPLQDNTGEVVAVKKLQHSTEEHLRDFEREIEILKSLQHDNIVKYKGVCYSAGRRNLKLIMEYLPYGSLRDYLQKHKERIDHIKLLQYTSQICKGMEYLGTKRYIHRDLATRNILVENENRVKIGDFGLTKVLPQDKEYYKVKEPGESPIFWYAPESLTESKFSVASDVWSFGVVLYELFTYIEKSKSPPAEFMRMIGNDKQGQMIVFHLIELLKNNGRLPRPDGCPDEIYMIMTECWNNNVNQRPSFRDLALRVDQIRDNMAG
T1 sequence (P23458 866-1154): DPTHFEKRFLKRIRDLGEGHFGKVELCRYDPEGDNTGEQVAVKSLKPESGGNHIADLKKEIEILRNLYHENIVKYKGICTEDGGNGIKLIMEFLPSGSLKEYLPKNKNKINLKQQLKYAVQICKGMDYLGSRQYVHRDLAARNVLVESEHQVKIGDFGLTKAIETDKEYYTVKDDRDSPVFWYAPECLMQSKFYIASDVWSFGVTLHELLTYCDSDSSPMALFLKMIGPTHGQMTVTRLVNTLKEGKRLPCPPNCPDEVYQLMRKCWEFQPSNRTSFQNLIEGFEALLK
T3 sequence (P52333 781-1124): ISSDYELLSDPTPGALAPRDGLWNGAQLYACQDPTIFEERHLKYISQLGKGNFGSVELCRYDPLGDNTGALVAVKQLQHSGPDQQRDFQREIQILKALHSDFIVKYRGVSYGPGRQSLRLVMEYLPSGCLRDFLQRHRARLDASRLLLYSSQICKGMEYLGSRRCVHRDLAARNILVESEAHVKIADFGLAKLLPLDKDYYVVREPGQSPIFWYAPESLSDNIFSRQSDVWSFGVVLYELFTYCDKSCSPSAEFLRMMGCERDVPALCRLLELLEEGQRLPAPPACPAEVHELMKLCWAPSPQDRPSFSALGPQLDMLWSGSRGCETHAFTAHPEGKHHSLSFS

Consider `CCc1cc(C(C#N)N2CCN(S(C)(=O)=O)CC2)ccc1N(C)c1cc2c(cn1)ncn2C` (stereo not drawn) [Compound 390, {3-Ethyl-4-[methyl-(1-methyl-1H-imidazo[4,5-c]pyridin-6-yl)-amino]-phenyl}-(4-methanesulfonyl-piperazin-1-yl)-acetonitrile], for which the IC50 in assay [1] is 0.01 to 100 nM; in assay [2], 0.01 to 100 nM; in assay [3], 0.01 to 100 nM; in assay [4], 0.01 to 100 nM; in assay [5] it was over 1000 nM; in assay [6], over 5000 nM.
On to `CCc1cc(C(C#N)N2CC(C#N)C2)ccc1N(C)c1cc2c(cn1)ncn2C` (stereo not drawn) [Compound 391, 1-(Cyano-{3-ethyl-4-[methyl-(1-methyl-1H-imidazo[4,5-c]pyridin-6-yl)-amino]-phenyl}-methyl)-azetidine-3-carbonitrile], for which the IC50 was 0.01 to 100 nM in assay [1]; 0.01 to 100 nM in assay [2]; 101 to 500 nM in assay [3]; 0.01 to 100 nM in assay [4]; over 1000 nM in assay [5]; 1000 to 5000 nM in assay [6].
In the case of `CCc1cc(C2(CCNS(C)(=O)=O)COC2)ccc1N(C)c1cc2c(cn1)ncn2C` [Compound 392, N-[2-(3-{3-Ethyl-4-[methyl-(1-methyl-1H-imidazo[4,5-c]pyridin-6-yl)-amino]-phenyl}-oxetan-3-yl)-ethyl]-methanesulfonamide], the IC50 in assay [1] was 0.01 to 100 nM; in assay [2], 0.01 to 100 nM; in assay [3] it was 101 to 500 nM; in assay [4] it was 0.01 to 100 nM; in assay [5], over 1000 nM; in assay [6], over 5000 nM.
In the case of `CCc1cc(C(C#N)N2CCOCC2)ccc1N(C)c1cc2c(cn1)ncn2C` (stereo not drawn) [Compound 393, {3-Ethyl-4-[methyl-(1-methyl-1H-imidazo[4,5-c]pyridin-6-yl)-amino]-phenyl}-morpholin-4-yl-acetonitrile], the IC50 is 0.01 to 100 nM in assay [1]; 0.01 to 100 nM in assay [2]; 0.01 to 100 nM in assay [3]; 0.01 to 100 nM in assay [4]; over 1000 nM in assay [5]; over 5000 nM in assay [6].
`CCc1cc(C(C#N)N2CCC2)ccc1N(C)c1cc2c(cn1)ncn2C` (stereo not drawn) [Compound 394]: the IC50 in assay [1] is 0.01 to 100 nM; in assay [2] it was 0.01 to 100 nM; in assay [3], 101 to 500 nM; in assay [4], 0.01 to 100 nM; in assay [5], over 1000 nM; in assay [6] it was 1000 to 5000 nM.
As for `CCc1cc(C(C#N)N2CCC(F)(F)CC2)ccc1N(C)c1cc2c(cn1)ncn2C` (stereo not drawn) [Compound 395, (4,4-Difluoro-piperidin-1-yl)-{3-ethyl-4-[methyl-(1-methyl-1H-imidazo[4,5-c]pyridin-6-yl)-amino]-phenyl}-acetonitrile], the IC50 in assay [1] was 0.01 to 100 nM; in assay [2], 0.01 to 100 nM; in assay [3] it was 101 to 500 nM; in assay [4] it was 0.01 to 100 nM; in assay [5], over 1000 nM; in assay [6], over 5000 nM.
As to `CCc1cc(C(C#N)N2CCN(C(C)=O)CC2)ccc1N(C)c1cc2c(cn1)ncn2C` (stereo not drawn) [Compound 396, (4-Acetyl-piperazin-1-yl)-{3-ethyl-4-[methyl-(1-methyl-1H-imidazo[4,5-c]pyridin-6-yl)-amino]phenyl}-acetonitrile], the IC50 was 0.01 to 100 nM in assay [1]; 0.01 to 100 nM in assay [2]; 0.01 to 100 nM in assay [3]; 0.01 to 100 nM in assay [4]; over 1000 nM in assay [5]; over 5000 nM in assay [6].
`CCc1cc(C2(CCNS(=O)(=O)C(F)F)COC2)ccc1N(C)c1cc2c(cn1)ncn2C` [Compound 397, N-[2-(3-{3-Ethyl-4-[methyl-(1-methyl-1H-imidazo[4,5-c]pyridin-6-yl)-amino]-phenyl}-oxetan-3-yl)-ethyl]-C,C-difluoro-methanesulfonamide]: the IC50 was 0.01 to 100 nM in assay [1]; 0.01 to 100 nM in assay [2]; 0.01 to 100 nM in assay [3]; 0.01 to 100 nM in assay [4]; over 1000 nM in assay [5]; 1000 to 5000 nM in assay [6].
Turning to `CCc1cc(C2(COS(=O)(=O)C(F)F)CCNC2)ccc1N(C)c1cc2c(cn1)ncn2C` (stereo not drawn) [Compound 398, difluoro-methanesulfonic acid 3-{3-ethyl-4-[methyl-(1-methyl-1H-imidazo[4,5-c]pyridin-6-yl)-amino]-phenyl}-pyrrolidin-3-ylmethyl ester], the IC50 is 0.01 to 100 nM in assay [1]; 0.01 to 100 nM in assay [2]; 0.01 to 100 nM in assay [3]; 101 to 500 nM in assay [4]; over 1000 nM in assay [5]; 1000 to 5000 nM in assay [6].
Consider `CCc1cc(N2CC(C(=O)NC)C2)ncc1N(C)c1cc2c(cn1)ncn2C` [Compound 400, 1-{4-Ethyl-5-[methyl-(1-methyl-1H-imidazo[4,5-c]pyridin-6-yl)-amino]-pyridin-2-yl}-azetidine-3-carboxylic acid methylamide], for which the IC50 in assay [1] was 101 to 500 nM; in assay [2] it was 501 to 1000 nM; in assay [3], over 1000 nM; in assay [4] it was 501 to 1000 nM; in assay [5] it was over 1000 nM; in assay [6] it was over 5000 nM.
Regarding `CCc1cc(N2CC(C#N)C2)ncc1N(C)c1cc2c(cn1)ncn2C` [Compound 402, 1-{4-Ethyl-5-[methyl-(1-methyl-1H-imidazo[4,5-c]pyridin-6-yl)-amino]-pyridin-2-yl}-azetidine-3-carbonitrile], the IC50 is 0.01 to 100 nM in assay [1]; 0.01 to 100 nM in assay [2]; 101 to 500 nM in assay [3]; 0.01 to 100 nM in assay [4]; over 1000 nM in assay [5]; 1000 to 5000 nM in assay [6].
Take `CN(c1cc2c(cn1)ncn2C)c1c(F)cc(CNS(C)(=O)=O)cc1F` [Compound 404, N-{3,5-Difluoro-4[methyl-(1-methyl-1H-imidazo[4,5-c]pyridin-6-yl)-amino]-benzyl}-methanesulfonamide]: the IC50 in assay [1] is 0.01 to 100 nM; in assay [2], 0.01 to 100 nM; in assay [3], 101 to 500 nM; in assay [4], 101 to 500 nM; in assay [5] it was over 1000 nM; in assay [6], over 5000 nM.
With `CN(c1cc2c(cn1)ncn2C)c1c(F)cc(CC#N)cc1F` [Compound 405, {3,5-Difluoro-4-[methyl-(1-methyl-1H-imidazo[4,5-c]pyridin-6-yl)-amino]-phenyl}-acetonitrile], the IC50 in assay [1] was 0.01 to 100 nM; in assay [2] it was 0.01 to 100 nM; in assay [3], 501 to 1000 nM; in assay [4], 0.01 to 100 nM; in assay [5], over 1000 nM; in assay [6], 1000 to 5000 nM.
In the case of `CCc1cc(CC#N)ccc1N(C)c1cc2c(cn1)ncn2C` [Compound 406, {3-Ethyl-4-[methyl-(1-methyl-1H-imidazo[4,5-c]pyridin-6-yl)-amino]-phenyl}-acetonitrile], the IC50 in assay [1] is 0.01 to 100 nM; in assay [2], 0.01 to 100 nM; in assay [3], 0.01 to 100 nM; in assay [4], 0.01 to 100 nM; in assay [5], 501 to 1000 nM; in assay [6], 1000 to 5000 nM.
With `CCc1cc(CC#N)ncc1N(C)c1cc2c(cn1)ncn2C` [Compound 407, {4-Ethyl-5-[methyl-(1-methyl-1H-imidazo[4,5-c]pyridin-6-yl)-amino]-pyridin-2-yl}-acetonitrile], the IC50 in assay [1] was 0.01 to 100 nM; in assay [2], 0.01 to 100 nM; in assay [3], 501 to 1000 nM; in assay [4], 101 to 500 nM; in assay [5] it was over 1000 nM; in assay [6], over 5000 nM.

Values taken from patent publication US20130217664A1, “NOVEL COMPOUNDS USEFUL FOR THE TREATMENT OF DEGENERATIVE AND INFLAMMATORY DISEASES” (priority 2012, published 2013).
